As a reminder, the inhibition is the drop in the measured response relative to a control, in per cent.

The target of this test is T1, p38 (Homo sapiens, UniProt Q16539).
T1 construct: made in house
T1 sequence (Q16539 whole entry): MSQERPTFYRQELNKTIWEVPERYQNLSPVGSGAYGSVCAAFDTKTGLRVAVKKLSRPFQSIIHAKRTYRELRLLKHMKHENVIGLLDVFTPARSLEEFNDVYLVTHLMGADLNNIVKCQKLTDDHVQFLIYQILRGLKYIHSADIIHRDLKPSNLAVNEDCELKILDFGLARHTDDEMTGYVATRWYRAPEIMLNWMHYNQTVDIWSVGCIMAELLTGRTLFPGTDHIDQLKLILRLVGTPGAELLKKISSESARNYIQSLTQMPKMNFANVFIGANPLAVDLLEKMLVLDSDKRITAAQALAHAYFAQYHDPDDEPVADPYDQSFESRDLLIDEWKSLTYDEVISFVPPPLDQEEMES
The test is described as follows: Protein Kinase Assay (33P incorporation from γ-[33P]ATP into GST-ATF-2 substrate). It is filed as biochemical. The settings on record: compound at 3 μM; read-out: Protein Kinase (% Inhibition at 3 μM). Here is the method: Human non-activated p38 kinase (MW=43 kDa) was purified according to the protocol described herein. Chemicals were purchased from Calbiochem. Fluorescence characterizations were conducted using a Cary Eclipse (Varian Analytical Instruments, Walnut Creek, Calif.). Research-grade CM5 sensor chips and coupling reagents (N-ethyl-N′-dimethylaminopropylcarbodiimide (EDC) N-hydroxysuccinimide (NHS), and 1 M ethanolamine HCl, pH 8.5) were purchased from Biacore AB (Uppsala, Sweden). The biosensor analyses were conducted using a Biacore 3000 SPR instrument. The kinetic analyses were carried on a Molecular Devices spectrophotometer (Molecular Devices Corporation, CA, USA).
Protein Kinase Assay. The protein kinase activity of p38 was determined by measuring the incorporation of ^33P from γ-[^33P]ATP into the GST-ATF-2 substrate, amino acids 19-96 (Upstate, NY USA). […] Compounds were preincubated with 10 nM p38 for 20 min at 30° C.; the reactions were initiated by the addition of GST-ATF2 and ATP and incubated for 70 min at 30° C. before being stopped by the addition of 10 μL of 600 mM phosphoric acid. The phosphorylated substrate was captured on phosphocellulose 96-well plate (Millipore MAPHNOB 10), washed with 100 mM phosphoric acid, and counted in a BeckmenCoulter LS6500 liquid scintillation counter.
Regarding `CC(C)(C)c1cc(C(=O)N2CCS(=O)(=O)CC2)c(NC(=O)Nc2ccc3c(c2)OCO3)s1` [Example 60, 1-Benzo[1,3]dioxol-5-yl-3-[5-tert-butyl-3-(1,1-dioxo-1λ^6-thiomorpholine-4-carbonyl)thiophen-2-yl]urea], the inhibition at 3 µM is 76 to 100%. Then `CC(C)(C)c1cc(C(=O)N2CCS(=O)(=O)CC2)c(NC(=O)Nc2ccc3c(c2)OC(F)(F)O3)s1` [Example 61, 1-[5-tert-butyl-3-(1,1-dioxo-1λ^6-thiomorpholine-4-carbonyl)thiophen-2-yl]-3-(2,2-difluorobenzo[1,3]dioxol-5-yl)urea], with 76 to 100%.

Consider `COc1ccc(NC(=O)Nc2sc(C(C)(C)C)cc2C(=O)N2CCS(=O)(=O)CC2)cc1Cl` [Example 62, 1-[5-tert-butyl-3-(1,1-dioxo-1λ^6-thiomorpholine-4-carbonyl)thiophen-2-yl]-3-(3-chloro-4-methoxyphenyl)urea], for which the inhibition at 3 µM was 76 to 100%. In the case of `CC(C)(C)c1cc(C(=O)N2CCS(=O)(=O)CC2)c(NC(=O)Nc2ccc(Cl)c(Cl)c2)s1` [Example 63, 1-[5-tert-butyl-3-(1,1-dioxo-1λ^6-thiomorpholine-4-carbonyl)thiophen-2-yl]-3-(3,4-dichlorophenyl)urea] it was 76 to 100%; in that of `CC(C)(C)c1cc(C(=O)N2CCS(=O)(=O)CC2)c(NC(=O)Nc2ccc(C#N)c(Cl)c2)s1` [Example 64, 1-[5-tert-butyl-3-(1,1-dioxo-1λ^6-thiomorpholine-4-carbonyl)thiophen-2-yl]-3-(3-chloro-4-cyanophenyl)urea], 51 to 75%. In the case of `CC(C)(C)c1cc(C(=O)N2CCS(=O)(=O)CC2)c(NC(=O)Nc2ccc(C#N)c(C(F)(F)F)c2)s1` [Example 65, 1-[5-tert-butyl-3-(1,1-dioxo-1λ^6-thiomorpholine-4-carbonyl)thiophen-2-yl]-3-(4-cyano-3-trifluoromethylphenyl)urea], the inhibition at 3 µM is 26 to 50%. Then `CC(C)(C)c1cc(C(=O)N2CCS(=O)(=O)CC2)c(NC(=O)NC(C)(C)c2ccccc2)s1` [Example 66, 1-[5-tert-butyl-3-(1,1-dioxo-1λ^6-thiomorpholine-4-carbonyl)thiophen-2-yl]-3-(1-methyl-1-phenylethyl)urea], with 0 to 25%; and `Cc1cccc(NC(=O)Nc2sc(C(C)(C)C)cc2C(=O)N2CCS(=O)(=O)CC2)c1` [Example 67, 1-[5-tert-butyl-3-(1,1-dioxo-1λ^6-thiomorpholine-4-carbonyl)thiophen-2-yl]-3-(3-tolyl)urea], with 76 to 100%; and `CC(C)(C)c1cc(C(=O)N2CCS(=O)(=O)CC2)c(NC(=O)Nc2cc(Cl)cc(Cl)c2)s1` [Example 68, 1-[5-tert-butyl-3-(1,1-dioxo-1λ^6-thiomorpholine-4-carbonyl)thiophen-2-yl]-3-(3,5-dichlorophenyl)urea], with 76 to 100%. Then `Cn1ccc(NC(=O)Nc2sc(C(C)(C)C)cc2C(=O)N2CCS(=O)(=O)CC2)n1` [Example 69, 1-[5-tert-butyl-3-(1,1-dioxo-1λ^6-thiomorpholine-4-carbonyl)thiophen-2-yl]-3-(1-methyl-1H-pyrazol-3-yl)urea], with 0 to 25%.

As for `Cc1cc(NC(=O)Nc2sc(C(C)(C)C)cc2C(=O)N2CCS(=O)(=O)CC2)cc(C)n1` [Example 70, 1-[5-tert-butyl-3-(1,1-dioxo-1λ^6-thiomorpholine-4-carbonyl)thiophen-2-yl]-3-(2,6-dimethylpyridin-4-yl)urea], the inhibition at 3 µM is 26 to 50%.

Take `CC(C)(C)c1cc(C(=O)N2CCS(=O)(=O)CC2)c(NC(=O)Nc2ccc3ocnc3c2)s1` [Example 71, 1-Benzoxazol-5-yl-3-[5-tert-butyl-3-(1,1-dioxo-1λ^6-thiomorpholine-4-carbonyl)thiophen-2-yl]urea]: the inhibition at 3 µM lay within 76 to 100%. In the case of `CC(C)(C)c1cc(C(=O)N2CCS(=O)(=O)CC2)c(NC(=O)Nc2ccc3ncoc3c2)s1` [Example 72, 1-Benzoxazol-6-yl-3-[5-tert-butyl-3-(1,1-dioxo-1λ^6-thiomorpholine-4-carbonyl)thiophen-2-yl]urea], the inhibition at 3 µM was 76 to 100%.

With `CC(C)(C)c1cc(C(=O)N2CCNC(=O)CC2)c(NC(=O)Nc2ccc3c(c2)OCO3)s1` [Example 73, 1-Benzo[1,3]dioxol-5-yl-3-[5-tert-butyl-3-(5-oxo-[1,4]diazepane-1-carbonyl)-thiophen-2-yl]urea], the inhibition at 3 µM was in the range of 76 to 100%. For `CC(C)(C)c1cc(C(=O)N2CCNC(=O)CC2)c(NC(=O)Nc2ccc3c(c2)OC(F)(F)O3)s1` [Example 74, 1-[5-tert-butyl-3-(5-oxo-[1,4]diazepane-1-carbonyl)-thiophen-2-yl]-3-(2,2-difluoro-benzo[1,3]dioxol-5-yl)urea], the inhibition at 3 µM lay within 76 to 100%. For the compound `CC(C)(C)c1cc(C(=O)Nc2cccnc2)c(NC(=O)Nc2ccc(Cl)cc2)s1` [Example 75, 1-(3-(Pyridin-3-ylcarbamoyl)-5-tert-butylthiophen-2-yl)-3-(4-chlorophenyl)urea], the inhibition at 3 µM is 76 to 100%. Then `CC(C)(C)c1cc(C(=O)N2CCS(=O)(=O)CC2)c(NC(=O)Nc2ccc(C#N)cc2Cl)s1` [Example 76, 1-[5-tert-butyl-3-(1,1-dioxo-1λ^6-thiomorpholine-4-carbonyl)thiophen-2-yl]-3-(2-chloro-4-cyanophenyl)urea], with 76 to 100%; and `CC(C)(C)c1cc(C(=O)N2CCS(=O)(=O)CC2)c(NC(=O)NC2(c3ccccc3)CC2)s1` [Example 77, 1-[5-tert-butyl-3-(1,1-dioxo-1λ^6-thiomorpholine-4-carbonyl)thiophen-2-yl]-3-(1-phenylcyclopropyl)urea], with 26 to 50%; and `CC1C(=O)NCCN1C(=O)c1cc(C(C)(C)C)sc1NC(=O)Nc1ccc(Cl)cc1` (stereo not drawn) [Example 78, 1-[5-tert-butyl-3-(2-methyl-3-oxopiperazine-1-carbonyl)thiophen-2-yl]-3-(4-chlorophenyl)urea], with 76 to 100%. Then `CC(C)(C)c1nc(C(=O)N2CCNS(=O)(=O)CC2)c(NC(=O)Nc2cccc3ccccc23)s1` [Example 80, 1-[2-tert-butyl-4-(1,1-dioxo-1λ^6-[1,2,5]thiadiazepane-5-carbonyl)thiazol-5-yl]-3-naphthalen-1-ylurea], with 76 to 100%. In the case of `CN(CCS(C)(=O)=O)C(=O)c1cc(C(C)(C)C)sc1NC(=O)Nc1cccc2ccccc12` [Example 82, 1-(3-(N-methyl-N-(2-(methylsulfonyl)ethyl)carbamoyl)-5-tert-butylthiophen-2-yl)-3-(naphthalen-1-yl)urea] it was 76 to 100%; in that of `CC(C)(C)c1nc(C(=O)N2CCNC(=O)C2)c(NC(=O)Nc2cccc3ccccc23)s1` [Example 83, 1-[2-tert-butyl-4-(3-oxopiperazine-1-carbonyl)thiazol-5-yl]-3-naphthalen-1-ylurea], 76 to 100%; in that of `CC(C)(C)c1cc(C(=O)N2CCS(=O)(=O)CC2)c(NC(=O)Nc2ccc(C#N)cc2C(F)(F)F)s1` [Example 84, 1-[5-tert-butyl-3-(1,1-dioxo-1λ^6-thiomorpholine-4-carbonyl)thiophen-2-yl]-3-(4-cyano-2-trifluoromethylphenyl)urea], 76 to 100%. In the case of `CC(C)(C)c1cc(C(=O)N2CCS(=O)(=O)CC2)c(NC(=O)Nc2cnc(O)c3ccccc23)s1` [Example 85, 1-[5-tert-butyl-3-(1,1-dioxo-1λ^6-thiomorpholine-4-carbonyl)thiophen-2-yl]-3-(1-hydroxyisoquinolin-4-yl)urea], the inhibition at 3 µM was in the range of 26 to 50%. Then `CC(C)(C)c1cc(C(=O)N[C@H]2CC(=O)NC2=O)c(NC(=O)Nc2cccc3ccccc23)s1` [Example 86], with 76 to 100%.

As to `CC1C(=O)NCCN1C(=O)c1cc(C(C)(C)C)sc1NC(=O)Nc1cccc2ccccc12` (stereo not drawn) [Example 87, 1-[5-tert-butyl-3-(2-methyl-3-oxopiperazine-1-carbonyl)thiophen-2-yl]-3-naphthalen-1-ylurea], the inhibition at 3 µM lay within 76 to 100%. In the case of `COC(=O)CC1C(=O)NCCN1C(=O)c1cc(C(C)(C)C)sc1NC(=O)Nc1cccc2ccccc12` (stereo not drawn) [Example 88, {1-[5-tert-butyl-2-(3-naphthalen-1-yl-ureido)thiophene-3-carbonyl]-3-oxo-piperazin-2-yl}-acetic acid methyl ester] it was 76 to 100%; in that of `CC(C)(C)c1cc(C(=O)N2CCNC(=O)CC2)c(NC(=O)Nc2ccc(C#N)cc2C(F)(F)F)s1` [Example 89, 1-[5-tert-butyl-3-(5-oxo-[1,4]diazepane-1-carbonyl)thiophen-2-yl]-3-(4-cyano-2-trifluoromethylphenyl)urea], 76 to 100%. In the case of `CC(C)(C)c1cc(C(=O)N2CCNC(=O)CC2)c(NC(=O)Nc2ccc(C#N)cc2Cl)s1` [Example 90, 1-[5-tert-Butyl-3-(5-oxo-[1,4]diazepane-1-carbonyl)thiophen-2-yl]-3-(2-chloro-4-cyanophenyl)urea] it was 76 to 100%; in that of `CC(C)(C)c1cc(C(=O)N2CCNS(=O)(=O)CC2)c(NC(=O)Nc2ccc(C#N)cc2Cl)s1` [Example 92, 1-[5-tert-Butyl-3-(1,1-dioxo-1λ^6-[1,2,5]thiadiazepane-5-carbonyl)thiophen-2-yl]-3-(4-cyano-2-chlorophenyl)urea], 76 to 100%.

For the origin of these results see patent US7741479B2, “Urea inhibitors of MAP kinases” (Locus Pharmaceuticals, Inc., priority 2004, dated 2010).
